Data as given in ChEMBL document CHEMBL1201862, “PubChem BioAssay data set” (2004).
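Test compounds were applied to cells in 96-well plates for 48 hours at 5 doses. GI50 = concentration required for 50% inhibition of growth.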 Activity calls are given as the source filed them. No stated cut-off is given here; in the data, active = GI50 up to about 1.1 µM and inactive = higher.

Key:
Assay in all cases: growth of human tumour cells (NCI), 48 h
KM12 = test system: KM12
OVCAR-5 = test system: OVCAR-5
OVCAR-4 = test system: OVCAR-4
A549 = test system: A549
HOP-92 = test system: HOP-92
CAKI-1 = test system: CAKI-1
OVCAR-3 = test system: OVCAR-3
SF-295 = test system: SF-295
SK-MEL-5 = test system: SK-MEL-5
SF-539 = test system: SF-539
IGROV-1 = test system: IGROV-1
SNB-19 = test system: SNB-19
RPMI-8226 = test system: RPMI-8226
TK-10 = test system: TK-10
CCRF-CEM = test system: CCRF-CEM
SK-OV-3 = test system: SK-OV-3
SR = test system: SR

Measured: GI50

CCC1CN2CCc3cc(OC)c(OC)cc3C2CC1CC1c2cc(OC)c(OC)cc2CCN1C(=O)C1CCCN1C(=O)OCc1ccccc1 (centres undefined)
inactive: KM12 16.3 µM | OVCAR-5 18.1 µM | OVCAR-4 12.2 µM | A549 18.9 µM | HOP-92 10.2 µM | CAKI-1 20.3 µM | OVCAR-3 16.2 µM | SF-295 16.5 µM | SK-MEL-5 15.5 µM | SF-539 18.7 µM | IGROV-1 15.9 µM | SNB-19 24.3 µM | RPMI-8226 15 µM | TK-10 19.5 µM

O=C1c2ccccc2C2(O)c3cc4ccccc4cc3OC12O (centres undefined)
inactive: KM12 46.8 µM | OVCAR-5 > 100 µM | OVCAR-4 84.7 µM | A549 44.4 µM | HOP-92 27.6 µM | CAKI-1 62.7 µM | OVCAR-3 53.6 µM | SF-295 34.2 µM | SK-MEL-5 30.1 µM | SF-539 > 100 µM | CCRF-CEM 47.2 µM | IGROV-1 85.7 µM | SK-OV-3 > 100 µM | SNB-19 31.2 µM | RPMI-8226 34 µM | TK-10 > 100 µM

O=C(NCc1ccncc1)C1COc2cc(-c3cc(=O)c4ccccc4o3)ccc2O1 (centres undefined)
inactive: SR > 100 µM | KM12 > 100 µM | OVCAR-5 > 100 µM | OVCAR-4 > 100 µM | A549 > 100 µM | HOP-92 > 100 µM | OVCAR-3 > 100 µM | SF-295 > 100 µM | SK-MEL-5 > 100 µM | SF-539 > 100 µM | CCRF-CEM > 100 µM | IGROV-1 > 100 µM | SK-OV-3 > 100 µM | TK-10 > 100 µM

CC(=O)NN1C(=O)C(Cc2ccccc2)c2ccccc21 (centres undefined)
inactive: KM12 > 100 µM | OVCAR-5 > 100 µM | OVCAR-4 > 100 µM | A549 > 100 µM | HOP-92 > 100 µM | CAKI-1 > 100 µM | OVCAR-3 > 100 µM | SF-295 > 100 µM | SK-MEL-5 > 100 µM | SF-539 > 100 µM | CCRF-CEM > 100 µM | IGROV-1 > 100 µM | SK-OV-3 > 100 µM | SNB-19 > 100 µM | RPMI-8226 > 100 µM | TK-10 > 100 µM

CC(=O)O[C@H]1CCC2[C@@H]3CCC4C(=O)c5oncc5C[C@]4(C)C3CC[C@@]21C (some centres undefined)
inactive: KM12 > 100 µM | OVCAR-5 > 100 µM | OVCAR-4 5.21 µM | A549 > 100 µM | HOP-92 > 100 µM | OVCAR-3 > 100 µM | SF-295 39.5 µM | SK-MEL-5 > 100 µM | SF-539 > 10 µM | CCRF-CEM > 100 µM | IGROV-1 > 100 µM | SK-OV-3 > 100 µM | SNB-19 > 10 µM | RPMI-8226 > 100 µM | TK-10 > 100 µM

COc1ccc(OC)c(NC(=O)C(=O)CC(=O)c2sc(-n3nc(-c4ccccc4)cc3-c3ccccc3)nc2C)c1
inactive: SR 27.7 µM | KM12 > 100 µM | OVCAR-5 > 100 µM | OVCAR-4 > 100 µM | A549 > 100 µM | CAKI-1 > 100 µM | OVCAR-3 > 100 µM | SF-295 > 100 µM | SF-539 > 100 µM | CCRF-CEM > 100 µM | IGROV-1 > 100 µM | SK-OV-3 > 100 µM | SNB-19 > 100 µM | RPMI-8226 > 100 µM | TK-10 > 100 µM

N/C(=N\O)N/N=C\c1c2ccccc2c(Cl)c2ccccc12
inactive: KM12 4.85 µM | OVCAR-5 3.05 µM | OVCAR-4 3.78 µM | A549 2.99 µM | HOP-92 3.16 µM | CAKI-1 5.52 µM | OVCAR-3 3.47 µM | SF-295 2.75 µM | SK-MEL-5 5 µM | SF-539 9.62 µM | CCRF-CEM 5.77 µM | IGROV-1 3.38 µM | SK-OV-3 2.57 µM | SNB-19 11.9 µM | RPMI-8226 3.3 µM | TK-10 11.8 µM

COC1(OC)CC2C(=O)N(Cc3ccccc3)C1C=C2S(=O)(=O)c1ccccc1 (centres undefined)
inactive: SR 15 µM | KM12 17.4 µM | OVCAR-4 20.5 µM | A549 21.9 µM | HOP-92 24.1 µM | OVCAR-3 14.8 µM | SF-295 28.5 µM | SK-MEL-5 13.8 µM | SF-539 17 µM | CCRF-CEM 14.9 µM | IGROV-1 32.9 µM | SK-OV-3 47.5 µM | SNB-19 24 µM | RPMI-8226 21 µM | TK-10 25.1 µM

CC1(C2COC(=O)C2)SCCCS1 (centres undefined)
inactive: SR > 100 µM | KM12 98.4 µM | OVCAR-4 > 100 µM | A549 > 100 µM | HOP-92 > 100 µM | CAKI-1 > 100 µM | OVCAR-3 > 100 µM | SF-295 > 100 µM | SK-MEL-5 > 100 µM | SF-539 > 100 µM | CCRF-CEM > 100 µM | IGROV-1 > 100 µM | SK-OV-3 53.8 µM | SNB-19 > 100 µM | TK-10 > 100 µM

COS(=O)c1cc(Cl)cc(Cl)c1OC(=O)CSSCC(=O)Oc1c(Cl)cc(Cl)cc1S(=O)OC (centres undefined)
inactive: KM12 14.8 µM | OVCAR-5 16.7 µM | OVCAR-4 19.3 µM | A549 13.2 µM | HOP-92 22.4 µM | CAKI-1 26.6 µM | OVCAR-3 23.9 µM | SF-295 19.5 µM | SK-MEL-5 17.4 µM | SF-539 13.8 µM | CCRF-CEM 19.6 µM | IGROV-1 19.4 µM | SK-OV-3 51.3 µM | SNB-19 5.24 µM | RPMI-8226 12.5 µM | TK-10 34.5 µM

CCCCCCCCCCCC(=O)OCCOCCOCCOCCOCCOCc1ccc(OC)cc1
inactive: SR > 100 µM | KM12 > 100 µM | OVCAR-5 > 100 µM | OVCAR-4 > 100 µM | A549 > 100 µM | HOP-92 > 100 µM | CAKI-1 > 100 µM | OVCAR-3 > 100 µM | SF-295 > 100 µM | SK-MEL-5 > 100 µM | CCRF-CEM > 100 µM | IGROV-1 88.5 µM | SK-OV-3 > 100 µM | SNB-19 > 100 µM | RPMI-8226 > 100 µM | TK-10 > 100 µM

CC(C)(C)c1ccc2c(c1)S(=O)(=O)Nc1ccccc1NS(=O)(=O)c1cc(C(C)(C)C)ccc1OCCOCCOCCO2
inactive: KM12 > 100 µM | OVCAR-5 > 100 µM | OVCAR-4 20.9 µM | A549 > 100 µM | HOP-92 85.3 µM | CAKI-1 97.9 µM | OVCAR-3 > 100 µM | SF-295 71 µM | SK-MEL-5 93.8 µM | SF-539 40 µM | CCRF-CEM > 100 µM | IGROV-1 > 100 µM | SK-OV-3 81.1 µM | SNB-19 > 100 µM | TK-10 > 100 µM

CCSc1nc(-c2ccc(OC)cc2)c(C#N)c(=O)n1C1OCC(OC(C)=O)C(OC(C)=O)C1OC(C)=O (centres undefined)
inactive: SR > 100 µM | KM12 > 100 µM | OVCAR-5 > 100 µM | OVCAR-4 > 100 µM | A549 > 100 µM | HOP-92 > 100 µM | CAKI-1 > 100 µM | SF-295 > 100 µM | SK-MEL-5 93.3 µM | SF-539 > 100 µM | IGROV-1 77.8 µM | SK-OV-3 > 100 µM | SNB-19 > 100 µM | RPMI-8226 78.5 µM | TK-10 > 100 µM

CC(C)(C)C(=O)OCC(COC(=O)C(C)(C)C)[N+](=O)[O-]
inactive: SR 42.4 µM | KM12 > 100 µM | OVCAR-5 > 100 µM | OVCAR-4 > 100 µM | A549 > 100 µM | CAKI-1 > 100 µM | OVCAR-3 > 100 µM | SF-295 > 100 µM | SF-539 > 100 µM | CCRF-CEM 41.9 µM | IGROV-1 > 100 µM | SK-OV-3 > 100 µM | SNB-19 > 100 µM | RPMI-8226 45.3 µM | TK-10 > 100 µM

CCN(CC)C(=O)c1c(Cl)cc(N(CC)CC)oc1=O
inactive: SR > 100 µM | KM12 > 100 µM | OVCAR-4 > 100 µM | A549 > 100 µM | HOP-92 > 100 µM | OVCAR-3 > 100 µM | SF-295 > 100 µM | SF-539 > 100 µM | CCRF-CEM > 100 µM | IGROV-1 > 100 µM | SK-OV-3 > 100 µM | SNB-19 > 100 µM | RPMI-8226 > 100 µM | TK-10 > 100 µM

CCSC(SCC)c1cc2c(cc1Br)OCO2
inactive: KM12 35.6 µM | OVCAR-5 27.2 µM | OVCAR-4 57.8 µM | A549 28.6 µM | HOP-92 17.8 µM | OVCAR-3 22.9 µM | SF-295 24.5 µM | SK-MEL-5 17.5 µM | SF-539 16.1 µM | CCRF-CEM 16.6 µM | IGROV-1 55.8 µM | SK-OV-3 25.2 µM | SNB-19 58.9 µM | RPMI-8226 19.4 µM | TK-10 44.7 µM

CC(=O)OCC1OC(n2c(-c3ccc(N)cc3)cc(-c3ccco3)c(C#N)c2=O)C(OC(C)=O)C(OC(C)=O)C1OC(C)=O (centres undefined)
inactive: SR > 50 µM | KM12 7.29 µM | OVCAR-5 > 50 µM | OVCAR-4 38.5 µM | A549 15.6 µM | HOP-92 4.08 µM | CAKI-1 > 50 µM | OVCAR-3 > 50 µM | SF-295 28 µM | SK-MEL-5 8.93 µM | SF-539 7.62 µM | IGROV-1 45 µM | SK-OV-3 > 50 µM | SNB-19 > 50 µM | TK-10 > 50 µM

ClC1=C(Cl)C(Cl)(Cl)c2c3c(c4c(c21)C(Cl)(Cl)C(Cl)=C4Cl)C(Cl)(Cl)C(Cl)=C3Cl
inactive: SR > 100 µM | KM12 > 100 µM | A549 > 100 µM | OVCAR-3 > 100 µM | SF-295 > 100 µM | SK-MEL-5 > 100 µM | SF-539 > 100 µM | CCRF-CEM > 100 µM | IGROV-1 > 100 µM | SK-OV-3 > 100 µM | SNB-19 > 100 µM | RPMI-8226 > 100 µM
